The results in this text go back to PMC8199613, “Discovery of Novel Small-Molecule Inhibitors of PD-1/PD-L1 Interaction via Structural Simplification Strategy” (Molecules, 2021).

Data set [1] deals with T1, PD-1/PD-L1 interaction (Homo sapiens, UniProt Q9NZQ7).
T1 construct: purchased Cisbio 64ICP01PEG
Description: HTRF-based PD-1/PD-L1 binding assay. As to conditions: for inhibition at 0.1 µM: 0.1 μM compound, read-out: Inhibitory Rate (%) 0.1 μM; for inhibition at 0.1 µM / inhibition at 1 µM / IC50: HTRF; for inhibition at 1 µM: 1 μM compound, read-out: Inhibitory Rate (%) 1 μM; for IC50: two independent experiments; for LE: LE = −1.35 logIC50/Nheavy atoms (HTRF IC50); for decrease in activity as compared with A9: HTRF IC50 ratio. For orientation: Time-resolved FRET reads energy transfer from a long-lived donor to a nearby acceptor.

T1 sequence (Q9NZQ7 19-238 limits assumed): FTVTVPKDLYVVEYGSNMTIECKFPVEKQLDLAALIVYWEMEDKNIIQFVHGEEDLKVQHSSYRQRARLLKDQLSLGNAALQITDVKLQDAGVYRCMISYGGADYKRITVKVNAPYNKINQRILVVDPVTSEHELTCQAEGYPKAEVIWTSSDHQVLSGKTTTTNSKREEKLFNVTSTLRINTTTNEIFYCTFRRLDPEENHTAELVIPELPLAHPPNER

Take `Cc1ccccc1-c1cccc(OCCCN2CCC(O)CC2)c1C.Cl` [Compound A1, 1-(3-((2,2′-Dimethyl-[1,1′-biphenyl]-3-yl)oxy)propyl)piperidin-4-ol hydrochloride]: in data set [1], the inhibition at 0.1 µM was 56%, the inhibition at 1 µM is 90%, the IC50 (commonly the concentration that inhibits the measured activity by half) amounted to 114 nM and the LE is recorded as 0.38.
As for `Cc1c(CN2CCC(N3CCC(O)CC3)CC2)cccc1-c1ccccc1F` [Compound A2, 1′-((2′-Fluoro-2-methyl-[1,1′-biphenyl]-3-yl)methyl)-[1,4′-bipiperidin]-4-ol], the melting point (as a rule, the temperature, or range, at which the solid turns liquid) lay within 110 to 113 °C. For the same compound, in data set [1], the inhibition at 0.1 µM is 8.5% and the inhibition at 1 µM worked out at 6.7%.
The compound `COc1cc(-c2cccc(-c3ccccc3F)c2C)ccc1CN1CCC(O)CC1` [Compound A3, 1-((2″-Fluoro-3-methoxy-2′-methyl-[1,1′:3′,1″-terphenyl]-4-yl)methyl)piperidin-4-ol] gave a melting point of 61.5 to 63.5 °C. Moreover, in data set [1], the inhibition at 0.1 µM worked out at 74.5%, the inhibition at 1 µM turned out to be 96.2%, the IC50 is 18.4 nM and the LE was 0.35.
`COc1nc(-c2cccc(-c3ccccc3F)c2C)ccc1CN1CCC(O)CC1` [Compound A4, 1-((6-(2′-Fluoro-2-methyl-[1,1′-biphenyl]-3-yl)-2-methoxypyridin-3-yl)methyl)piperidin-4-ol]: the melting point was 84 to 86 °C. Further, in data set [1], the inhibition at 0.1 µM was found to be 71%, the inhibition at 1 µM was 98%, the IC50 was 21.9 nM and the LE was 0.36.
Turning to `COc1nc(-c2cccc(-c3ccccc3F)c2C)ccc1CNC1CCC(O)CC1` (stereo not shown) [Compound A5, 4-(((6-(2′-Fluoro-2-methyl-[1,1′-biphenyl]-3-yl)-2-methoxypyridin-3-yl)methyl)amino)cyclohexan-1-ol], the melting point fell in the range of 80 to 82 °C. For the same compound, in data set [1], the IC50 stood at 14.3 nM and the LE is 0.35.
The matching figures for `COc1nc(-c2cccc(-c3ccccc3F)c2C)ccc1CN1CCCC(C(N)=O)C1` (stereo not shown) [Compound A6, 1-((6-(2′-Fluoro-2-methyl-[1,1′-biphenyl]-3-yl)-2-methoxypyridin-3-yl)methyl)piperidine-3-carboxamide]: 88 to 91 °C, 121 nM and 0.30.
In the same order, the values of `COc1nc(-c2cccc(-c3ccccc3F)c2C)ccc1CN1CCC(C(N)=O)CC1` [Compound A7, 1-((6-(2′-Fluoro-2-methyl-[1,1′-biphenyl]-3-yl)-2-methoxypyridin-3-yl)methyl)piperidine-4-carboxamide] are 194 to 196 °C, 10.7 nM and 0.34.
The matching figures for `COc1nc(-c2cccc(-c3ccccc3F)c2C)ccc1CN1CCC(C(=O)O)CC1` [Compound A8, 1-((6-(2′-Fluoro-2-methyl-[1,1′-biphenyl]-3-yl)-2-methoxypyridin-3-yl)methyl)piperidine-4-carboxylic acid]: 218 to 220 °C, 20.6 nM and 0.33.
`COc1nc(-c2cccc(-c3ccccc3C)c2C)ccc1CNCCC(N)=O` [Compound A10] gave a melting point of 70 to 73 °C. For the same compound, in data set [1], the “decrease in activity as compared with A9” value is “more than 10 fold”, the IC50 was found to be 10.5 nM and the LE came out at 0.38.
In turn, `COc1nc(-c2cccc(-c3ccccc3C(F)(F)F)c2C)ccc1CNCCC(N)=O` [Compound A12] gave a melting point of 50.5 to 53.5 °C. Besides, in data set [1], the “decrease in activity as compared with A9” value was “more than 10 fold”, the IC50 was 51.5 nM and the LE is given as 0.31.
As for `COc1nc(-c2cccc(-c3ccc(F)cc3F)c2C)ccc1CNCCC(N)=O` [Compound A16], the melting point lay in the range of 113 to 115 °C. In data set [1], this compound showed an IC50 of 60 nM and an LE of 0.33.
